Laboratory results from ChEMBL document CHEMBL5260845, “Flavone-based arylamides as potential anticancers: Design, synthesis and in vitro cell-based/cell-free evaluations” (2020).
Active and inactive are the calls of the source. The calls are words filed in the database; no cut-off is given here.

What was measured:
[1] = tested on: SR; experiment: Antiproliferative activity against human SR cells assessed as cell growth inhibition at 10 uM by SRB assay; format: functional, cell-based
[2] = tested on: MOLT-4; experiment: Antiproliferative activity against human MOLT-4 cells assessed as cell growth inhibition at 10 uM by SRB assay; format: functional, cell-based
[3] = tested on: NCI-H226; experiment: Antiproliferative activity against human NCI-H226 cells assessed as cell growth inhibition at 10 uM by SRB assay; format: functional
[4] = tested on: SF-295; experiment: Antiproliferative activity against human SF-295 cells assessed as cell growth inhibition at 10 uM by SRB assay; format: functional, cell-based
[5] = tested on: NCI-H522; experiment: Antiproliferative activity against human NCI-H522 cells assessed as cell growth inhibition at 10 uM by SRB assay; format: functional, cell-based
[6] = tested on: K562; experiment: Antiproliferative activity against human K562 cells assessed as cell growth inhibition at 10 uM by SRB assay; format: functional, cell-based
[7] = tested on: EKVX; experiment: Antiproliferative activity against human EKVX cells assessed as cell growth inhibition at 10 uM by SRB assay; format: functional
[8] = tested on: NCI-H23; experiment: Antiproliferative activity against human NCI-H23 cells assessed as cell growth inhibition at 10 uM by SRB assay; format: functional
[9] = tested on: SK-MEL-2; experiment: Antiproliferative activity against human SK-MEL-2 cells assessed as cell growth inhibition at 10 uM by SRB assay relative to control; format: functional; settings: Homo sapiens, SK-MEL-2, dose 10 µM
[10] = tested on: RPMI-8226; experiment: Antiproliferative activity against human RPMI-8226 cells assessed as cell growth inhibition at 10 uM by SRB assay; format: functional, cell-based
[11] = tested on: Hs-578T; experiment: Antiproliferative activity against human Hs-578T cells assessed as inhibition of cell growth at 10 uM by SRB assay; format: functional, cell-based
[12] = tested on: HL-60; experiment: Antiproliferative activity against human HL-60 cells assessed as cell growth inhibition at 10 uM by SRB assay; format: functional, cell-based
[13] = tested on: CCRF-CEM; experiment: Antiproliferative activity against human CCRF-CEM cells assessed as cell growth inhibition at 10 uM by SRB assay; format: functional, cell-based
[14] = tested on: HOP-92; experiment: Antiproliferative activity against human HOP-92 cells assessed as cell growth inhibition at 10 uM by SRB assay; format: functional, cell-based
[15] = tested on: UO-31; experiment: Antiproliferative activity against human UO-31 cells assessed as inhibition of cell growth at 10 uM by SRB assay relative to control; format: functional
[16] = tested on: UACC-257; experiment: Antiproliferative activity against human UACC-257 cells assessed as cell growth inhibition at 10 uM by SRB assay relative to control; format: functional
[17] = tested on: UACC-62; experiment: Antiproliferative activity against human UACC-62 cells assessed as cell growth inhibition at 10 uM by SRB assay relative to control; format: functional
[18] = tested on: NCI-H322M; experiment: Antiproliferative activity against human NCI-H322M cells assessed as cell growth inhibition at 10 uM by SRB assay; format: functional, cell-based
[19] = tested on: A549; experiment: Antiproliferative activity against human A549 cells assessed as cell growth inhibition at 10 uM by SRB assay; format: functional, cell-based
[20] = tested on: HOP-62; experiment: Antiproliferative activity against human HOP-62 cells assessed as cell growth inhibition at 10 uM by SRB assay; format: functional, cell-based
[21] = tested on: NCI-H460; experiment: Antiproliferative activity against human NCI-H460 cells assessed as cell growth inhibition at 10 uM by SRB assay; format: functional, cell-based
[22] = tested on: 786-0; experiment: Antiproliferative activity against human 786-0 cells assessed as inhibition of cell growth at 10 uM by SRB assay relative to control; format: functional
[23] = tested on: RXF 393; experiment: Antiproliferative activity against human RXF 393 cells assessed as inhibition of cell growth at 10 uM by SRB assay relative to control; format: functional

Structure (SMILES)	inhibition [1]	inhibition [2]	inhibition at 10 µM [3] [%]	inhibition [4]	inhibition [5]	inhibition [6]	inhibition at 10 µM [7] [%]	inhibition at 10 µM [8] [%]	inhibition at 10 µM [9] [%]	inhibition [10]	inhibition [11]	inhibition [12]	inhibition [13]	inhibition [14]	inhibition [15]	also measured
COc1cc2oc(-c3cccc(NC(=O)c4ccccc4Br)c3)cc(=O)c2c(OC)c1OC	Active	Active	< 50	Active	Active	Active	< 50	< 50	≤ 46	Active	Active	Active	Active	Active	Active	–
COc1cc2oc(-c3ccc(NC(=O)c4ccc([N+](=O)[O-])cc4)cc3)cc(=O)c2c(OC)c1OC	–	–	< 50	Active	Active	–	< 50	< 50	–	–	Active	–	–	Active	Active	–
COC(=O)c1ccc(C(=O)Nc2cccc(-c3cc(=O)c4c(OC)c(OC)c(OC)cc4o3)c2)cc1	Active	Active	< 50	Active	Active	Active	< 50	< 50	≤ 46	Active	Active	Active	Active	Active	Active	–
COc1cc2oc(-c3cccc(NC(=O)c4ccc(C)cc4)c3)cc(=O)c2c(OC)c1OC	Active	Active	< 50	Active	Active	Active	< 50	< 50	≤ 46	Active	Active	Active	Active	Active	Active	inhibition at 10 µM [16]: 56.1%; inhibition at 10 µM [17]: 50.8%
COc1cc2oc(-c3ccc(NC(=O)c4cccc(C#N)c4)cc3)cc(=O)c2c(OC)c1OC	Active	Active	< 50	Active	Active	Active	< 50	< 50	–	Active	Active	Active	Active	Active	Active	–
COc1cc2oc(-c3cccc(NC(=O)c4ccc(C#N)cc4)c3)cc(=O)c2c(OC)c1OC	Active	Active	< 50	Active	Active	Active	< 50	< 50	≤ 46	Active	Active	Active	Active	Active	Active	inhibition [3]: Active; inhibition [18]: Active; inhibition [7]: Active; inhibition [8]: Active; inhibition [19]: Active; inhibition [20]: Active; inhibition [21]: Active
COc1cc2oc(-c3cccc(C(=O)Nc4ccc(C#N)cc4)c3)cc(=O)c2c(OC)c1OC	–	–	–	–	Active	–	–	–	–	–	–	–	–	Active	–	inhibition [3]: Active; inhibition [18]: Active; inhibition [7]: Active; inhibition [8]: Active; inhibition [19]: Active; inhibition [20]: Active; inhibition [21]: Active
COc1cc2oc(-c3cccc(NC(=O)c4ccc(C(F)(F)F)cc4)c3)cc(=O)c2c(OC)c1OC	Active	Active	< 50	Active	Active	Active	< 50	< 50	≤ 46	Active	Active	Active	Active	Active	Active	–
COc1cc2oc(-c3ccc(NC(=O)c4ccc(Br)cc4)cc3)cc(=O)c2c(OC)c1OC	inactive	inactive	< 50	Active	Active	inactive	< 50	< 50	–	inactive	Active	inactive	inactive	Active	Active	–
COc1cc2oc(-c3cccc(NC(=O)c4cccc(C#N)c4)c3)cc(=O)c2c(OC)c1OC	Active	Active	< 50	Active	Active	Active	< 50	< 50	≤ 46	Active	Active	Active	Active	Active	Active	–
CNC(=O)c1cc(Oc2ccc(NC(=O)Nc3ccc(Cl)c(C(F)(F)F)c3)cc2)ccn1 [SORAFENIB]	–	–	–	–	–	–	–	–	–	–	–	–	–	–	–	inhibition at 10 µM [22]: 84.5%
COc1cc2oc(-c3cccc(C(=O)Nc4ccc(Br)cc4)c3)cc(=O)c2c(OC)c1OC	Active	Active	–	–	Active	Active	–	–	–	Active	–	Active	Active	Active	–	inhibition [3]: Active; inhibition [18]: Active; inhibition [7]: Active; inhibition [8]: Active; inhibition [19]: Active; inhibition [20]: Active; inhibition [23]: Active; inhibition [21]: Active
COc1cc2oc(-c3ccc(NC(=O)c4cccc(Br)c4)cc3)cc(=O)c2c(OC)c1OC	Active	Active	< 50	Active	Active	Active	< 50	< 50	–	Active	Active	Active	Active	Active	Active	–
COC(=O)c1ccc(C(=O)Nc2ccc(-c3cc(=O)c4c(OC)c(OC)c(OC)cc4o3)cc2)cc1	–	–	< 50	Active	Active	–	< 50	< 50	–	–	Active	–	–	Active	Active	–
COc1cc2oc(-c3ccc(NC(=O)c4ccc(C#N)cc4)cc3)cc(=O)c2c(OC)c1OC	–	–	< 50	Active	Active	–	< 50	< 50	–	–	Active	–	–	Active	Active	–
